Test results taken from patent US20070015723A1, “Antiviral oligonucleotides having a conserved G4 core sequence” (priority 1992, published 2007).
Where “and” joins values, the source holds several entries; their conditions need not be identical. Equal values may be shown once. Strand notation (5' to 3'): a small letter for the sugar, then the base; units joined by * are phosphorothioate-linked, units joined directly phosphodiester-linked; [ ] holds rarer units or linkages, { } end groups; capitals alone tell only the bases. d = 2'-deoxy (DNA)

Tests used:
HSV-1 (KOS) [1] = test: HSV-1 infection ELISA assay; format: cell-based
HIV-1IIIB [2] = test system: HIV-1IIIB
HIV-1IIIB [3] = test: Acute HIV infection assay (XTT, CEM cells); conditions: inhibition of HIV
human cytomegalovirus = test: Cytomegalovirus inhibition ELISA assay; format: cell-based; conditions: HCMV
[4] = target: T1, human type II phospholipase A2 (Homo sapiens, UniProt P14555); test: Human type II phospholipase A2 enzyme assay (3H-oleic acid labelled E. coli substrate); format: biochemical; conditions: 1 μM
T1 sequence (P14555 21-144): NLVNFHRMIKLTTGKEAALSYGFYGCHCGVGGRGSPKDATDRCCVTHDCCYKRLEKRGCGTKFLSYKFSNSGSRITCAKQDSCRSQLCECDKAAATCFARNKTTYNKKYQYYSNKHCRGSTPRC

HSV-1 (KOS) [5] = test: HSV-1 virus yield assay; format: cell-based; conditions: for anti-HSV activity in virus yield assay: FIG. 2
[6] = 50% inhibition of HSV replication relative to control infected cells, Table 1
[7] = Table 5, two separate experiments
[8] = HSV-1 (KOS strain), Table 9, some in duplicate

| Substance | EC50 (HSV-1 (KOS) [1]; [6]) | IC50 (HIV-1IIIB [3]) | other results |
| --- | --- | --- | --- |
| ISIS 5677: GGGG TT GGGG TT GGGG TT GGGG, P = S, SEQ ID NO 36 (GGGGTTGGGGTTGGGGTTGGGG; all phosphorothioate, sugars by position not given here) | 0.2 µM | 0.1 µM and 0.19 µM | TI (TC50/IC50) (HIV-1IIIB [2]): 146 |
| ISIS 4897: CAC GGG GTC GCC GAT, P = S, SEQ ID NO 31 (CACGGGGTCGCCGAT; all phosphorothioate, sugars by position and methylation of C not given here) | 0.13 µM | 0.43 µM | – |
| ISIS 4717: GG GGT TGG GG, P = S, SEQ ID NO 26 (GGGGTTGGGG; all phosphorothioate, sugars by position not given here) | 0.6 µM | 0.41 µM | IC50 (human cytomegalovirus): 1 µM; % Inhibition (1 μM) [4, 7]: 83.1% |
| ISIS 4873: CAT GAC CGG GGC, P = S, SEQ ID NO 4 (CATGACCGGGGC; all phosphorothioate, sugars by position and methylation of C not given here) | 1.4 µM and 1 µM | 1 µM | – |
| ISIS 4560: GGGG C GGGG C GGGG C GGGG C G, P = S, SEQ ID NO 42 (dG*dG*dG*dG*dC*dG*dG*dG*dG*dC*dG*dG*dG*dG*dC*dG*dG*dG*dG*dC*dG) | 0.18 µM | 0.14 µM | IC50 (human cytomegalovirus): 0.15 µM; % Inhibition (1 μM) ([4]; Table 4): 100% |
| ISIS 5653: TT GGGG TT GGGG TT GGGG, P = S, SEQ ID NO 38 (TTGGGGTTGGGGTTGGGG; all phosphorothioate, sugars by position not given here) | 0.2 µM | 0.12 µM | anti-HSV activity in virus yield assay (HSV-1 (KOS) [5]): dose-dependent anti-HSV activity; TC50 (CEM cell line): 27 µM |
| ISIS 4672: GGG T GGG T ATA G, P = S, SEQ ID NO 50 (GGGTGGGTATAG; all phosphorothioate, sugars by position not given here) | 0.2 µM | – | % Inhibition (1 μM) [4, 7]: 73.9% and 94.6% |
| ISIS 5675: TT GGGG TT GGGG TT, P = S, SEQ ID NO 40 (TTGGGGTTGGGGTT; all phosphorothioate, sugars by position not given here) | 0.42 µM | 0.38 µM | TI (TC50/IC50) (HIV-1IIIB [2]): 36; TC50 (CEM cell line): 14 µM |
| ISIS 5676: GGGG TT GGGG TT GGGG, P = S, SEQ ID NO 39 (GGGGTTGGGGTTGGGG; all phosphorothioate, sugars by position not given here) | 0.23 µM | 0.18 µM and 0.28 µM | anti-HSV activity in virus yield assay (HSV-1 (KOS) [5]): dose-dependent anti-HSV activity; TI (TC50/IC50) (HIV-1IIIB [2]): 114 |
| ISIS 5668: TT GGGG TT GGGG, P = O, SEQ ID NO 57 (TTGGGGTTGGGG; all phosphodiester, sugars by position not given here) | – | > 21 µM | TC50 (CEM cell line): 5.2 µM |
| ISIS 5674: TT GGGG TT GGGG, P = S, SEQ ID NO 41 (TTGGGGTTGGGG; all phosphorothioate, sugars by position not given here) | 1.5 µM | 0.43 µM | TC50 (CEM cell line): >200 µM |
| ISIS 4885: A GAC CGG GGT TGG GG, P = S, SEQ ID NO 24 (AGACCGGGGTTGGGG; all phosphorothioate, sugars by position and methylation of C not given here) | 0.42 µM and 0.51 µM | – | – |
| ISIS 4872: GGC GGG ACT ACG GGG, P = S, SEQ ID NO 11 (GGCGGGACTACGGGG; all phosphorothioate, sugars by position and methylation of C not given here) | 1.9 µM and 1.7 µM | – | – |
| ISIS 4393: GGGGTTGGGGAATGAATCCC, phosphorothioate, SEQ ID NO 124 (GGGGTTGGGGAATGAATCCC; antisense; all phosphorothioate, sugars by position and methylation of C not given here) | – | – | EC50 (HSV-1 (KOS) [1]; [8]): 0.2 µM |
| ISIS 5296: GTT GGA GAC CGG GGT TGG IG, Inosine #19, SEQ ID NO 139 (GTT GGA GAC CGG GGTTGG IG; inosine at 19, as printed in the source, key not given here) | – | – | EC50 (HSV-1 (KOS) [1]; Table 12, inosine-substituted): 0.8 µM |
| ISIS 4664: GGG T GGG T ATA G AAG G GC, P = S, SEQ ID NO 48 (GGGTGGGTATAGAAGGGC; all phosphorothioate, sugars by position and methylation of C not given here) | 0.2 µM | – | – |
| ISIS 5667: TT GGGG TT GGGG TT, P = O, SEQ ID NO 56 (TTGGGGTTGGGGTT; all phosphodiester, sugars by position not given here) | – | > 22 µM | TC50 (CEM cell line): 5.6 µM |
| ISIS 4692: T GGG T ATA G AAG GGC TCC, P = S, SEQ ID NO 51 (TGGGTATAGAAGGGCTCC; all phosphorothioate, sugars by position and methylation of C not given here) | 1.5 µM | – | – |
| ISIS 5366: TTGGGGTTGGGGTTGGGGTTG GGGG, P = S, SEQ ID NO 33 (TTGGGGTTGGGGTTGGGGTTGGGGG; all phosphorothioate, sugars by position not given here) | 0.16 µM | 0.08 µM and 0.1 µM | IC50 (human cytomegalovirus): 0.1 µM; TI (TC50/IC50) (HIV-1IIIB [2]): 220; TC50 (CEM cell line): 22 µM |
| ISIS 5310: GTT GGA GAC CGG GGT TGG GI, Inosine #20, SEQ ID NO 141 (GTT GGA GAC CGG GGTTGG GI; inosine at 20, as printed in the source, key not given here) | – | – | EC50 (HSV-1 (KOS) [1]; Table 12, inosine-substituted): 0.4 µM |
| ISIS 4346: GAGGTGGGCTTCGGTGGTGA, phosphorothioate, SEQ ID NO 123 (GAGGTGGGCTTCGGTGGTGA; antisense; all phosphorothioate, sugars by position and methylation of C not given here) | – | – | EC50 (HSV-1 (KOS) [1]; [8]): 0.5 µM |
| ISIS 5365: GA GAC CGG GGT TGG GG, P = S, SEQ ID NO 23 (GAGACCGGGGTTGGGG; all phosphorothioate, sugars by position and methylation of C not given here) | 0.47 µM | – | – |
| ISIS 4925: GTT GGA GAC CGG IGT TGG IG, Inosine #13, 19, SEQ ID NO 137 (GTT GGA GAC CGG IGTTGG IG; inosine at 13, 19, as printed in the source, key not given here) | – | – | EC50 (HSV-1 (KOS) [1]; Table 12, inosine-substituted): 1.6 µM |
| ISIS 5356: CGG GGT TGG GG, P = S, SEQ ID NO 25 (CGGGGTTGGGG; all phosphorothioate, sugars by position and methylation of C not given here) | 0.7 µM | – | – |
| ISIS 5590: GGGG TT GGGG, P = O, SEQ ID NO 46 (GGGGTTGGGG; all phosphodiester, sugars by position not given here) | > 3 µM | > 25 µM | TC50 (CEM cell line): 20 µM |
| ISIS 5651: TT GGGG TT GGGG TT GGGG TT GGGG, P = S, SEQ ID NO 35 (TTGGGGTTGGGGTTGGGGTTGGGG; all phosphorothioate, sugars by position not given here) | 0.17 µM | 0.1 µM and 0.18 µM | anti-HSV activity in virus yield assay (HSV-1 (KOS) [5]): dose-dependent anti-HSV activity; antiviral activity in virus yield assay (HSV-1 (KOS) [5]; dose of 3 mM, FIG. 1): greater antiviral activity than did Acyclovir; TI (TC50/IC50) (HIV-1IIIB [2]): 175 |
